Columns and labels:
Axl (Ba/F3 cells) = target: T1, Axl (Ba/F3 cells) (Homo sapiens, UniProt P30530); assay: BaF3 viability assay, Axl-dependent cells; type: cell-based; details: read-out: Cellular Axl activity by Ba/F3 assay (IC50)
T1 sequence (P30530 1-894): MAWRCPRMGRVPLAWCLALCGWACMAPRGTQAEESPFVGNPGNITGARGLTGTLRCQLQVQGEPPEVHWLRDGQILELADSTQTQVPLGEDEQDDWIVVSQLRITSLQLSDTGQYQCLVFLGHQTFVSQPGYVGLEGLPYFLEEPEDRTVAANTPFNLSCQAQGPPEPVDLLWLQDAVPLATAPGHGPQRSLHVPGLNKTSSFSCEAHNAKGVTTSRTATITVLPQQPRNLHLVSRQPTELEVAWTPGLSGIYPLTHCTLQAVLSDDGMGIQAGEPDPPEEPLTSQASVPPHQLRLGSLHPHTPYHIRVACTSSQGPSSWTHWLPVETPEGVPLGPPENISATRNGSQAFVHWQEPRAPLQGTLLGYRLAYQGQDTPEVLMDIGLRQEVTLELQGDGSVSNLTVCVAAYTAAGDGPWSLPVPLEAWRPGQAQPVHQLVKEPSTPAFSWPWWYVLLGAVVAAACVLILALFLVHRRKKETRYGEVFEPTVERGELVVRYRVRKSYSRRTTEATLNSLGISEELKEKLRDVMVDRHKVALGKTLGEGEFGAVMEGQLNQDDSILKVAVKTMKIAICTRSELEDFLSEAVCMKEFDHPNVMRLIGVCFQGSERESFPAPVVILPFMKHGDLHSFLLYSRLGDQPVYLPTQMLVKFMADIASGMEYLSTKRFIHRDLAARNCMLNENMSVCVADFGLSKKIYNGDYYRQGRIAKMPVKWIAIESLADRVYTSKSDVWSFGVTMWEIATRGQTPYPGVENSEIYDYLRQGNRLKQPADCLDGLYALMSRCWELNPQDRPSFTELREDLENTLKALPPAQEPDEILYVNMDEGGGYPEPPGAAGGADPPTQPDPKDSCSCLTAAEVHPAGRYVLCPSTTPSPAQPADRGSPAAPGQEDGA
Excerpt: (§1) In this system, IL-3-dependent Ba/F3 cells are modified to express an activated recombinant kinase (in the present case Axl, Mer and CSF1R). Following removal of IL-3, the modified cells are dependent on the activity of the recombinant kinase for survival and proliferation. Inhibition of such kinase(s) through test compounds reduces survival and proliferation of the cells.
(§2) Cell lines were maintained in growth media (GM) consisting of RPMI 1640 supplemented with 10% FBS. Cells in logarithmic-phase growth were harvested and 5,000 cells were distributed into each well of a 384-well plate in 50 μl GM. Parental cells (or experimental assays where specified) were further supplemented with 2 ng/ml IL-3 to support cell growth and survival. Fifty nanoliters of the indicated reference standard or experimental compound were added to appropriate wells (in duplicate) and the cells were cultured for 48 h at 37° C./5% CO2. Viability was determined by adding 10 μl Cell Titer Glo and measuring luminescence, which is reported as relative light units (RLU) measured in counts per second. The following calculations and formulas are used for data analysis using GraphPad Prism software: The curve fitting was made using the Dose response curves-Inhibition.

Mer (Ba/F3 cells) = target: T2, Mer (Ba/F3 cells) (Homo sapiens, UniProt Q12866); assay: BaF3 viability assay, Mer-dependent cells; type: cell-based; details: read-out: Cellular Mer activity by Ba/F3 assay (IC50)
T2 sequence (Q12866 1-999): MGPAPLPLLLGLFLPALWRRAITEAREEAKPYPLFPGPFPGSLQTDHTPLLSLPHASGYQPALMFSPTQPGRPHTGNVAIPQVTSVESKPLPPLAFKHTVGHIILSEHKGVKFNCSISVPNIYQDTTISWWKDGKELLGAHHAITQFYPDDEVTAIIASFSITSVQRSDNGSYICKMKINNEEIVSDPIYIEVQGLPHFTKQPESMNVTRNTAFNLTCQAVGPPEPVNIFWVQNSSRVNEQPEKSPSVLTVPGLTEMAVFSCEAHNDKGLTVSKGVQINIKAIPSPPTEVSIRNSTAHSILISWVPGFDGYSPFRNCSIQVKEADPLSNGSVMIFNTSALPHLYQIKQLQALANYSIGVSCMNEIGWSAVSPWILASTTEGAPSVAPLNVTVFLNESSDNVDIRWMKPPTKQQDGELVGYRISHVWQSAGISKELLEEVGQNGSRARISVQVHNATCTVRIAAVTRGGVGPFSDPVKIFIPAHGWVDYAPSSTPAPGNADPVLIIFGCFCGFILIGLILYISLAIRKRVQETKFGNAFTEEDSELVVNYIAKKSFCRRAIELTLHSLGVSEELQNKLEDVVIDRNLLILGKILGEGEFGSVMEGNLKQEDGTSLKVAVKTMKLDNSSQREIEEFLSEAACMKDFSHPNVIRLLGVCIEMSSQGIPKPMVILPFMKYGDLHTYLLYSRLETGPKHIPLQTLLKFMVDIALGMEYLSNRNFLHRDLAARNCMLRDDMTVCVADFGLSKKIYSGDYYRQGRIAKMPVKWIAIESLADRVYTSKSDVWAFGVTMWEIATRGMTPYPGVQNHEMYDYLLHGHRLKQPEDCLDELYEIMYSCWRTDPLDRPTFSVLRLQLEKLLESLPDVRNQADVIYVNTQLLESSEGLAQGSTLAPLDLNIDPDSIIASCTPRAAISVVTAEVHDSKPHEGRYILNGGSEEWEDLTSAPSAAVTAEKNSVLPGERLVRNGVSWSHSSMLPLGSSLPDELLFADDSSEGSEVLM
Excerpt: as §1, §2

SMILES | GI50 (Axl (Ba/F3 cells)) [nM] | GI50 (Mer (Ba/F3 cells)) [nM]
COc1cc2nccc(Oc3ccc(NC(=O)c4nn(C[C@H](C)O)cc4OCC(F)(F)F)nc3)c2cc1OC [Compound 30] | < 1000 | < 1000
CCCn1cc(OCCC(O)CO)c(C(=O)Nc2ccc(Oc3ccnc4cc(OC)c(OC)cc34)cn2)n1 (stereo not drawn) [Compound 15] | < 1000 | 1000 to 10000
COc1cc2nccc(Oc3ccc(NC(=O)c4nn(C[C@@H](C)O)cc4OCC(F)(F)F)nc3)c2cc1OC [Compound 29] | < 1000 | < 1000
COc1cc2nccc(Oc3ccc(NC(=O)c4nn(CC(C)O)cc4OCC(F)(F)F)nc3)c2cc1OC (stereo not drawn) [Compound 17] | < 1000 | < 1000
CCCn1cc(OC(C)C)c(C(=O)Nc2ccc(Oc3ccnc4cc(OC)c(OC(F)(F)F)cc34)c(F)c2)n1 [Compound 35] | ≥ 10000 | ≥ 10000
COc1cc2nccc(Oc3ccc(NC(=O)c4nn(CCCO)cc4OCC(F)(F)F)nc3)c2cc1OC [Compound 18] | < 1000 | < 1000

— US12162858B2, “Quinoline derivatives as inhibitors of AXL/MER RTK and CSF1R” (QURIENT CO., LTD., priority 2018, dated 2024)
